# Patent US5753709A, “N-acyl-2 aryl cyclopropylmethylamine derivatives as melatonergics” (Bristol-Myers Squibb Company, priority 1996, dated 1998)
# Biological target: T1, human melatonin receptor (human ML1A) (Homo sapiens, UniProt P48039)
# T1 construct: expressed in transfected cells; host or cells: COS-1 cells (transient, pcDNAI, DEAE-dextran); membrane homogenates
# Experiment: Melatonergic binding: displacement of 2-[125I]-iodomelatonin at the human melatonin receptor (human ML1A in COS-1 membranes)
# Details: Table 4; displacement of 2[125I]-Iodomelatonin (100 pM), 37° C., 1 hour
# Description: The melatonergic binding of the compounds of Formula I was determined by a modification of the method of Reppert, S. M. et al. (Neuron, Volume 13, pages 1177-1185, 1994). […] The reagents, membranes, and other parameters used in the assay are described below:
# (a) 50 mM Tris buffer containing 12.5 mM MgCl2, and 2 mM EDTA (pH 7.4 at 37° C.).
# (b) Wash buffer: 20 mM Tris base containing 2 mM MgCl2 (pH 7.4 at room temperature).
# (c) 6-Chloromelatonin (10^-5 M final concentration).
# (d) 2-[^125 I]-Iodomelatonin (100 pM final concentration). (Source: NEN) Membrane preparation: The cDNA (human ML1A) in pcDNAI was introduced into COS-1 cells by the DEAE-dextran method. Three days later, after media removal, the plates were washed with buffered saline; the cells removed using Hank's balanced salt solution and pelleted. The supernant was discarded and the pellets frozen. For membrane homogenates, the pellets were thawed and resuspended in TME buffer, Tris base, MgCl2, EDTA (pH 7.4 at 37° C.), and supplemented with aprotinin, leupeptin, and phenylmethylsulfonyl fluoride. The cells were homogenized and centrifuged; the resulting pellet resuspended in TME and frozen. At assay, the small aliquot was thawed on ice and resuspended in TME buffer. Incubation: 37° C. for 1 hour. Reaction is terminated by filtration.
# T1 sequence (P48039 whole entry): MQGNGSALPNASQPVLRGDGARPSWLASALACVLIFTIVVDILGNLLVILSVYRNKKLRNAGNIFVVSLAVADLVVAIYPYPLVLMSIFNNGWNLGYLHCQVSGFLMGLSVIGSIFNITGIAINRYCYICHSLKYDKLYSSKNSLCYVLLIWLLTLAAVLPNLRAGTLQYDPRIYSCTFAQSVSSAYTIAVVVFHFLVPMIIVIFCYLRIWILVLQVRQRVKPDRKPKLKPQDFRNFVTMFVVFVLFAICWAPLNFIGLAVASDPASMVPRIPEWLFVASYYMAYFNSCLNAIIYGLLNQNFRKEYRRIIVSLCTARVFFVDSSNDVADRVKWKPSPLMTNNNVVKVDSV
row,IC50,Compound
1,40 to 250 nM,"COc1ccc(F)c([C@@H]2C[C@H]2CNC(=O)C(C)C)c1 (relative stereo) [Example 1, (trans)-N-[[2-(2-Fluoro-5-methoxyphenyl)cyclopropyl]methyl]-2-methylpropanamide]"
2,< 5 nM,"CCCC(=O)NC[C@@H]1C[C@H]1c1cccc(OC)c1 (relative stereo) [Example 2, (trans)-N-[[2-(3-Methoxyphenyl)cyclopropyl]methyl] butanamide]"
3,< 5 nM,"CCCC(=O)NC[C@@H]1C[C@H]1c1cc(OC)ccc1I (relative stereo) [Example 4, (trans)-N-[[2-(2-Iodo-5-methoxyphenyl)cyclopropyl]methyl]butanamide]"
4,40 to 250 nM,"CCCC(=O)N(Cc1ccccc1)C[C@@H]1C[C@H]1c1cccc(OC)c1 (relative stereo) [Example 6, (trans)-N-[[2-(3-Methoxyphenyl)cyclopropyl]methyl]-N-(phenylmethyl) butanamide]"
5,< 5 nM,"CCC(=O)NC[C@@H]1C[C@H]1c1cccc(OC)c1 (relative stereo) [Example 18, (trans)-N-[[2-(3-Methoxyphenyl)cyclopropyl]methyl] propanamide]"
6,5 to 40 nM,"COc1cccc([C@@H]2C[C@H]2CNC(C)=O)c1 (relative stereo) [Example 19, (trans)-N-[[2-(3-Methoxyphenyl)cyclopropyl]methyl] acetamide]"
7,5 to 40 nM,"COCC(=O)NC[C@@H]1C[C@H]1c1cccc(OC)c1 (relative stereo) [Example 20, (trans)-N-[[2-(3-Methoxyphenyl)cyclopropyl]methyl]-2-methoxyacetamide]"
8,5 to 40 nM,COc1cccc([C@@H]2C[C@H]2CNC(=O)C(C)C)c1 (relative stereo) [Example 21]
9,40 to 250 nM,CCCCC(=O)NC[C@@H]1C[C@H]1c1cccc(OC)c1 (relative stereo) [Example 25]

# Same assay, conditions: Table 5; displacement of 2[125I]-Iodomelatonin (100 pM), 37° C., 1 hour
row,IC50,Compound
1,250 to 600 nM,"CCCC(=O)NC[C@@H]1C[C@H]1c1cccc(O)c1 (relative stereo) [Example 7a, (trans)-N-[[2-(3-Hydroxyphenyl)cyclopropyl]methyl] butanamide]"
2,5 to 40 nM,"C=CCOc1cccc([C@@H]2C[C@H]2CNC(=O)CCC)c1 (relative stereo) [Example 7b, (trans)-N-[[2-[3-(2-Propenyloxy)phenyl]cyclopropyl]methyl] butanamide]"
3,40 to 250 nM,CCCC(=O)NC[C@@H]1C[C@H]1c1cccc(OCCO)c1 (relative stereo) [Example 15]
4,40 to 250 nM,CCCC(=O)NC[C@@H]1C[C@H]1c1cccc(OCCCCCCc2ccccc2)c1 (relative stereo) [Example 45]
5,5 to 40 nM,"CCCC(=O)NC[C@@H]1C[C@H]1c1cccc(OCCCCCCCc2ccccc2)c1 (relative stereo) [Example 46, (trans)-N-[[2-[3-[(7-Phenylheptyl)oxy]phenyl]cyclopropyl]methyl] butanamide]"
6,250 to 600 nM,CCCC(=O)NC[C@@H]1C[C@H]1c1cccc(OCCCC#Cc2ccccc2)c1 (relative stereo) [Example 47]
7,5 to 40 nM,CCCC(=O)NC[C@@H]1C[C@H]1c1cccc(OCC)c1 (relative stereo) [Example 48]
8,40 to 250 nM,"CCCCCCCOc1cccc([C@@H]2C[C@H]2CNC(=O)CCC)c1 (relative stereo) [Example 53, (trans)-N-[[2-[3-(Heptyloxy)phenyl]cyclopropyl]methyl] butanamide]"
9,5 to 40 nM,"CCCCCCCCOc1cccc([C@@H]2C[C@H]2CNC(=O)CCC)c1 (relative stereo) [Example 54, (trans)-N-[[2-[(3-Octyloxy)phenyl]cyclopropyl]methyl] butanamide]"
10,40 to 250 nM,"CCCCCCCCCOc1cccc([C@@H]2C[C@H]2CNC(=O)CCC)c1 (relative stereo) [Example 55, (trans)-N-[[2-[3-(Nonyloxy)phenyl]cyclopropyl]methyl] butanamide]"
11,5 to 40 nM,"CCCCCCCCCCOc1cccc([C@@H]2C[C@H]2CNC(=O)CCC)c1 (relative stereo) [Example 56, (trans)-N-[[2-[(3-Decyloxy)phenyl]cyclopropyl]methyl] butanamide]"
12,5 to 40 nM,"CCCCCCCCCCCOc1cccc([C@@H]2C[C@H]2CNC(=O)CCC)c1 (relative stereo) [Example 57, (trans)-N-[[2-[(3-Undecyloxy)phenyl]cyclopropyl]methyl] butanamide]"
13,5 to 40 nM,"CCCCCCCCCCCCOc1cccc([C@@H]2C[C@H]2CNC(=O)CCC)c1 (relative stereo) [Example 58, (trans)-N-[[2-[(3-Dodecyloxy)phenyl]cyclopropyl]methyl] butanamide]"
14,250 to 600 nM,CCCCCCCCCCCCCCCCOc1cccc([C@@H]2C[C@H]2CNC(=O)CCC)c1 (relative stereo) [Example 59]
15,5 to 40 nM,"CCCC(=O)NC[C@@H]1C[C@H]1c1cccc(OCCc2ccccc2)c1 (relative stereo) [Example 60, (trans)-N-[[2-[3-[(2-Phenylethyl)oxy]phenyl]cyclopropyl]methyl] butanamide]"
16,250 to 600 nM,CCCC(=O)NC[C@@H]1C[C@H]1c1cccc(OCC(C)C)c1 (relative stereo) [Example 61]
17,5 to 40 nM,"CCCC(=O)NC[C@@H]1C[C@H]1c1cccc(OCCCc2cccc(OC)c2)c1 (relative stereo) [Example 62, (trans)-N-[[2-[3-[3-(3-Methoxyphenyl)propoxy]phenyl]cyclopropyl]methyl] butanamide]"
18,40 to 250 nM,CCCC(=O)NC[C@@H]1C[C@H]1c1cccc(OCCCc2ccncc2)c1 (relative stereo) [Example 63]

row,IC50,Compound
1,40 to 250 nM,CCCC(=O)NC[C@@H]1C[C@H]1c1cc(OC(F)(F)F)ccc1Br (relative stereo) [Example 72]
2,5 to 40 nM,"CCCC(=O)NC[C@@H]1C[C@H]1c1cccc(Br)c1 (relative stereo) [Example 73, (trans)-N-[[2-(3-Bromophenyl)cycloprop-1-yl]methyl] butanamide]"
3,5 to 40 nM,"CCCC(=O)NC[C@@H]1C[C@H]1c1cccc(C)c1 (relative stereo) [Example 75, (trans)-N-[[2-(3-Methylphenyl)cycloprop-1-yl]methyl] butanamide]"
4,40 to 250 nM,"CC(=O)NC[C@@H]1C[C@H]1c1cccc(C)c1 (relative stereo) [Example 78, (trans)-N-[[2-(3-Methylphenyl)cycloprop-1-yl]methyl] acetamide]"
5,5 to 40 nM,"CCCC(=O)NC[C@@H]1C[C@H]1c1cccc(Cl)c1 (relative stereo) [Example 80, (trans)-N-[[2-(3-Chlorophenyl)cycloprop-1-yl]methyl] butanamide]"
6,40 to 250 nM,"CCCC(=O)NC[C@@H]1C[C@H]1c1cc(F)ccc1F (relative stereo) [Example 87, (trans)-N-[[2-(2,5-Difluorophenyl)cycloprop-1-yl]methyl] butanamide]"
7,40 to 250 nM,CCCC(=O)NC[C@@H]1C[C@H]1c1cccc(OCCCF)c1 (relative stereo) [Example 94]
8,5 to 40 nM,"CCCC(=O)NC[C@@H]1C[C@H]1c1cccc(OCCCc2ccccc2)c1 (relative stereo) [Example 95, (trans)-N-[[2-[3[(3-Phenylprop-1-yl)oxy]phenyl]cycloprop-1-yl]methyl] butanamide]"
9,5 to 40 nM,"CCCC(=O)NC[C@@H]1C[C@H]1c1cccc(OCCCOc2ccccc2)c1 (relative stereo) [Example 96, (trans)-N-[[2-[3[(3-Phenoxyprop-1-yl)oxy]phenyl]cycloprop-1-yl]methyl] butanamide]"
10,5 to 40 nM,CCCC(=O)NC[C@@H]1C[C@H]1c1cccc(OCCCn2cccc2)c1 (relative stereo) [Example 98]
11,5 to 40 nM,"CCCC(=O)NC[C@@H]1C[C@H]1c1cccc(OCC=C(C)CCC=C(C)C)c1 (relative stereo) [Example 99, (trans)-N-[[2-[3[(3-Dimethylocta-2,6-dien-1-yl)oxy]phenyl]cycloprop-1-yl]methyl] butanamide]"
12,5 to 40 nM,"CCCC(=O)NC[C@@H]1C[C@H]1c1cccc(OCCCCC(C)C)c1 (relative stereo) [Example 100, (trans)-N-[[2-[3-(5-Methylhexyloxy)phenyl]cycloprop-1-yl]methyl] butanamide]"
13,< 5 nM,"CCCC(=O)NC[C@@H]1C[C@H]1c1cccc(OCC=C(C)CCC=C(C)CCC=C(C)C)c1 (relative stereo) [Example 103, (trans)-N-[[2-[3-[(3-,7,11-Trimethyldodeca-2,6,10-trien-1-yl)oxy]phenyl]cycloprop-1-yl]methyl] butanamide]"
14,5 to 40 nM,C=CCCCOc1cccc([C@@H]2C[C@H]2CNC(=O)CCC)c1 (relative stereo) [Example 105]
15,5 to 40 nM,"CCCC(=O)NC[C@@H]1C[C@H]1c1cccc(OCCC=C(C)C)c1 (relative stereo) [Example 106, (trans)-N-[[2-[3-(4-Methyl-3-penten-1-yloxy)phenyl]cycloprop-1-yl]methyl] butanamide]"
16,40 to 250 nM,CCCC(=O)NC[C@@H]1C[C@H]1c1cccc(OCCCCC(C)(C)C#N)c1 (relative stereo) [Example 107]
17,40 to 250 nM,CCCC(=O)NC[C@@H]1C[C@H]1c1cccc(OCCCC(=O)OC)c1 (relative stereo) [Example 108]
